Measured values taken from US20220290200A1, “GENETICALLY MODIFIED HOST CELLS PRODUCING GLYCOSYLATED CANNABINOIDS” (OCTARINE BIO IVS, priority 2019, published 2022).

Key:
[1] = tested on: S. cerevisiae strain BY4741; assay: Toxicity of cannabinoids and cannabinoid glycosides in S. cerevisiae (final OD600); assay type: cell-based; details: 3% ethanol; for Final OD600 of S. cerevisiae: 72 h; for toxicity to yeast (final OD600 after 72 h): YP media, 2% glucose, 30° C., concentration range tested
Description: It is well known that cannabinoids are toxic to microbes, and it is thought that these compounds are produced by cannabis plants as a defense mechanism against infection. […] Product toxicity in microbial strains engineered to produce cannabinoids will hinder high-level production of these molecules, glycosylating these molecules can be used to detoxify them and facilitate higher production titers in engineered microbial strains. […] Cells were inoculated to a starting OD600 of 0.1 and incubated at 30° C. and 200 RPM and the final OD600 was measured after 72 h.

[2] = In vitro glycosyl transferase performance, purified enzymes, % conversion of cannabinoids to cannabinoid glycosides; assay type: biochemical; details: acceptor CBD, UDP-Glucose
Method in brief: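 His-tagged glycosyl transferases expressed in E. coli XJb (DE3) were Ni-affinity purified. Cannabinoids (in methanol) were incubated with enzyme, UDP-sugar and alkaline phosphatase without shaking at 30 °C for 24 h. Products confirmed by LC-MS/QTOF; % conversion derived from substrate decrease and glycoside peak areas against authentic standards.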

Row | Compound | Final OD600 of S. cerevisiae ([1]; 100 μM substrate added) | Final OD600 of S. cerevisiae ([1]; 200 μM substrate added) | Final OD600 of S. cerevisiae ([1]; 400 μM substrate added) | Final OD600 of S. cerevisiae ([1]; 800 μM substrate added) | toxicity to yeast (final OD600 after 72 h) [1] | Conversion % (CBD to the glycoside) ([2]; enzyme PL-159(Pt88G_GA), in vitro 30° C. 24 h) [%] | Conversion % (CBD to the glycoside) ([2]; enzyme PL-214(Cs73Y_GA)) [%]
1 | C=C(C)[C@@H]1CCC(C)=C[C@H]1c1c(O)cc(CCCCC)cc1O [CBD, cannabidiol, reference compound] | 9.3 | 8.2 | 6.7 | 4.7 | toxic to yeast | – | –
2 | C=C(C)[C@@H]1CCC(C)=C[C@H]1c1c(O)cc(CCCCC)cc1O[C@@H]1O[C@H](CO)[C@@H](O)[C@H](O)[C@H]1O [OB1, CBD-1′-O-β-D-glucoside] | – | – | – | – | – | 75 | –
3 | C=C(C)[C@@H]1CCC(C)=C[C@H]1c1c(O[C@@H]2O[C@H](CO)[C@@H](O)[C@H](O)[C@H]2O)cc(CCCCC)cc1O[C@@H]1O[C@H](CO)[C@@H](O)[C@H](O)[C@H]1O [OB6, CBD-1′-O-β-D-glucosyl-3′-O-β-D-glucoside] | 9.1 | 8.8 | 9.5 | 8.8 | non-toxic at the concentration range tested | – | 57.5
